We go through one compound from patent US20160185682A1, “NITRIFICATION INHIBITOR COMPOSITIONS AND METHODS FOR PREPARING THE SAME” (Dow AgroSciences LLC, priority 2014, published 2016).

The format of series [1] is physicochemical. An excerpt:
(§1) In some embodiments of the present disclosure, in order to measure the diffusion of nitrification inhibitors through volatilization barriers and, therefore, provide diffusion constants to estimate the ultimate loss of nitrification inhibitors to volatilization, Fourier transform infrared spectroscopy operating in attenuated total reflectance mode (“ATR-FTIR”) can be employed to probe diffusion of nitrification inhibitors, such as, for example, nitrapyrin, through polymeric materials.
(§2) A Nicolet 4700 Fourier transform infrared spectrometer (“FTIR”) with SCFGG using attenuated total reflectance (“ATR”) accessory (“Specac”) was utilized in the studies presented herein. Nitrapyrin technical grade manufactured by Dow AgroSciences LLC was used in some of the experiments presented herein. […]
(§3) Kollidon VA64 was purchased as a vinyl pyrrolidone/vinyl acetate 60/40 copolymer from Sigma Aldrich. […] Film thickness was measured using a Dektak profilometer (Veeco). […]
(§4) Films were allowed to equilibrate in the FTIR chamber for thirty minutes before the experiments were started. […] A single-beam spectrum was acquired of the film for use as a background spectrum, after which absorbance spectra were continuously recorded throughout the experiment. Peak heights were determined using a macro and data were fit according to the model as described below. […]

The conditions of series [2]: at 230 Celsius; cited from earlier work.
The nature of series [3]: ATR-FTIR diffusion of nitrapyrin through polymer film, diffusion constant fitted by Fick's second law model. The series is classed as physicochemical.
Excerpt: as §1, §2, §3, §4

Turning to `Clc1cccc(C(Cl)(Cl)Cl)n1` [nitrapyrin, 2-chloro-6-(trichloromethyl)pyridine], the “diffusion constant for nitrapyrin through polymer film (printed as 'partition coefficient')” value in series [1] is recorded as 10^−3-10^−2 μm^2/s. Further, the vapor pressure in series [2] is listed as 2.8×10^−3 mm Hg. Moreover, in series [3] (Kollidon VA64 film, 30 μm, curve not well-fitting a standard diffusion model), the “diffusion profile of nitrapyrin through film” value is reported as “slow through the film before it rapidly equilibrates”. Further, the diffusion constant in series [3] (Polyvinyl pyrollidone (K90) film) is 0.1-1 μm^2/s.
